Legend:
Format in all cases: cell-based
human 5-HT3-C = target: T1, human 5-HT3-C (Homo sapiens, UniProt Q8WXA8); test: Two-electrode voltage clamp, Xenopus oocytes injected with 5-HT3-C cRNA alone
T1 construct: Characterization of the Function of Protein Encoded by p5HT3CR in Xenopus oocvtes; expressed in transfected cells; host or cells: Xenopus laevis oocytes injected with in vitro transcribed cRNA (pGEM HE)
T1 sequence (Q8WXA8 28-447): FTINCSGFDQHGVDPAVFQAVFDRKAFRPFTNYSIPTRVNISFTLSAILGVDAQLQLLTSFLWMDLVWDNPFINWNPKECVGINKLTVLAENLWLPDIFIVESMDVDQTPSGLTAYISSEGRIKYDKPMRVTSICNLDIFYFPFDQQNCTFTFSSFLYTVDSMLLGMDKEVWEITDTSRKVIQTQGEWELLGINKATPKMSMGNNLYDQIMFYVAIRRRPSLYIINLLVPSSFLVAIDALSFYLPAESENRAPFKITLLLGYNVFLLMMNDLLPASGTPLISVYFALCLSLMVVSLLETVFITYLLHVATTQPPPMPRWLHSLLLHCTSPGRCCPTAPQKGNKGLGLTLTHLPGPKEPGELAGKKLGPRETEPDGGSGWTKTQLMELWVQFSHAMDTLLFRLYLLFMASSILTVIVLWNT
Method: (§1) Characterization of the Function of Protein Encoded by p5HT3CR in Xenopus oocvtes Xenopus laevis oocytes were prepared and injected using standard methods previously described and known in the art (Fraser et al., 1993). Ovarian lobes from adult female Xenopus laevis (Nasco, Fort Atkinson, Wis.) were teased apart, rinsed several times in nominally Ca-free saline containing (in mM): NaCl 82.5, KCl 2.5, MgCl2 1, HEPES 5, adjusted to pH 7.0 with NaOH(OR-2), and gently shaken in OR-2 containing 0.2% collagenase Type 1 (ICN Biomedicals, Aurora, Ohio) for 2–5 hours. When approximately 50% of the follicular layers were removed, Stage V and VI oocytes were selected and rinsed in media consisting of 75% OR-2 and 25% ND-96. The ND-96 contained (in mM): NaCl 100, KCl 2, MgCl2 1, CaCl2 1.8, HEPES 5, Na pyruvate 2.5, gentamicin (50 ug/ml), adjusted to pH 7.0 with NaOH. […] For in vitro transcription, pGEM HE (Liman et al., 1992) containing human 5-HT3-A (Genbank D49394) or 5-HT3-C cDNA was linearized with NheI and transcribed with T7 RNA polymerase (Stratagene) in the presence of the cap analog m7G(5′)ppp(5′)G. The synthesized cRNA was purified with a Sephadex G-50 spin column. […] Control oocytes were injected with 50 nl of water. Oocytes were incubated for 2–14 days in ND-96 before analysis for expression of the human 5-HT3-C. Incubations and collagenase digestion were carried out at room temperature. Injected oocytes were maintained in 48 well cell culture clusters (Costar, Cambridge, Mass.) at 18° C. Whole cell agonist-induced currents were measured 1–14 days after injection with a conventional two-electrode voltage clamp (GeneClamp500, Axon Instruments, Foster City, Calif.) using standard methods previously described and known in the art (Dascal, 1987). The microelectrodes were filled with 3 M KCl, which had resistances of 1 and 2 MΩ. Cells were continuously perfused with ND96 at 10 ml/min at room temperature unless indicated. Membrane voltage was clamped at −70 mV unless indicated.

[1] = target: T2, human 5-HT3-A(short) receptor (Homo sapiens, UniProt P46098); test: Two-electrode voltage clamp, oocytes expressing 5-HT3-A(short) homomeric receptors
T2 sequence (P46098 24-478): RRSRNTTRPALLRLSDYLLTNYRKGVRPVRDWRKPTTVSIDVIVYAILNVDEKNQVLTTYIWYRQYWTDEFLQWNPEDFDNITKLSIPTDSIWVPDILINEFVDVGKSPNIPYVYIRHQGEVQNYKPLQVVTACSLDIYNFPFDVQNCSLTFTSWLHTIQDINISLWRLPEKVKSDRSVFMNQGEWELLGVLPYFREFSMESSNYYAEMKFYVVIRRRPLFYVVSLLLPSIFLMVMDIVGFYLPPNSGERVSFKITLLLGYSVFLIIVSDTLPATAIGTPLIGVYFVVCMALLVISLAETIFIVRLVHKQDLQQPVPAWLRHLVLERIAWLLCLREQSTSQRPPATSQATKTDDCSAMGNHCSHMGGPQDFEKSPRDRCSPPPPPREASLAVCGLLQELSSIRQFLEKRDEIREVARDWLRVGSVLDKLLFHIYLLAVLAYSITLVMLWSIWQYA

[2] = target: T3, human 5-HT3-A(short) together with 5-HT3-C (Homo sapiens, UniProt P46098); test: Two-electrode voltage clamp, oocytes co-injected with 5-HT3-A(short) and 5-HT3-C
T3 construct: Characterization of the Function of Protein Encoded by p5HT3CR in Xenopus oocvtes; expressed in transfected cells; host or cells: Xenopus laevis oocytes co-injected with cRNAs
T3 sequence (P46098 24-478): T2 sequence (P46098 24-478)
Method: as §1
Functional expression of human serotonin 5-HT3 receptor modifier subunit 5-HT3-C together with the human short form of the 5-HT3-A receptor (Genbank accession # D49394) in Xenopus oocytes is shown in FIGS. 4 and 5. Agonist was applied during the time indicated by the horizontal bar above the record. […] As a positive control for translation and surface expression, all oocytes were co-injected with a Shaker potassium channel N-terminal deletion mutant that lacks fast inactivation. […] Oocytes were continuously perfused with Ba^2+ containing ND96 at a rate of 10 ml/min at room temperature. Time scale bar: 25 sec. Similar results were obtained in experiments in which oocytes were bathed in Ca^2+ containing ND96.

5-HT3-A receptors = target: T4, 5-HT3-A receptors (Homo sapiens, UniProt P46098); test: FLIPR DiBAC control, cells stably expressing 5-HT3-A receptors; conditions: control for the DIBAC; increase in fluorescence
T4 sequence (P46098 24-478): T2 sequence (P46098 24-478)

- sensitivity of oocytes to neuroactive compound (human 5-HT3-C; >100 μM, only 5-HT3-C cRNA (33.5 ng), n=5): insensitive
- effect of agonist (agonist-induced current) (human 5-HT3-C; ≧100 μM, 33.5 ng or 3.35 ng 5-HT3-C cRNA/oocyte): no effect
- peak currents to 5-HT ([1]; 5-HT3-A(short)-expressing oocytes, comparison for 2:1 ratio, n=19): −1.65+/−0.42 nA
- Responses to 5-HT ([1]; 10 LM 5-HT, 5-HT3-A(short)-injected oocytes (0.33 ng), n=6): −3.89+/−0.76 nA
- peak response to 5-HT ([2]; 10 μM 5-HT, 2-fold more 5-HT3-C cRNA (0.67 ng), control = 5-HT3-A homomeric): about 10 % of control
- effect of 5-HT3-C on 5-HT response ([2]; 1:1 ratio, n=6): little effect
- 5-HT response diminished ([2]; 1.8×fold 5-HT3-C to 5-HT3-A cRNA concentration, n=3): about 20%
- peak currents to 5-HT ([2]; 5-HT3-C and 5-HT3-A(short) at a ratio of 2:1, n=20): −0.028+/−0.007 nA
- sensitivity of oocytes to 5-HT ([2]; 5-HT3-C:5-HT3-A(short) 10:1): essentially insensitive
- Responses to 5-HT ([2]; 10 LM 5-HT, 5-HT3-C:5-HT3-A(short) 10:1 (3.35 ng : 0.33 ng), n=6): −0.010+/−0.008 nA
- DiBAC membrane potential response (5-HT3-A receptors): fast transient depolarization
SMILES: NCCc1c[nH]c2ccc(O)cc12 [5-HT, 5-hydroxytryptamine]

Source: patent publication US7109296B2, “Human 5-HT3-C protein” (Ortho-McNeil Pharmaceutical, Inc., priority 1999, dated 2006)
